Source: US20060281807A1, “Quassinoid compositions for the treatment of cancer and other proliferative diseases” (Tapestry Pharmaceuticals, Inc., priority 2005, published 2006)

How the values were obtained:
[1] = tested on: SK-N-AS; experiment: MTT cytotoxicity assay (% kill), SK-N-AS; format: cell-based, human; details: MTT after five days
Protocol: (§1) The following human tumor cell lines were obtained and cultured in sextuplicate microwells at 37° C. and 5% CO2 in humidified air and in 10% FBS in Eagles MEM: SK—N—FI, SK—N-AS, LS-174T, WiDr, HuTu-80, MCF7, NCI-AR, MES-Sar, and PL-45. Cells from each cell line were separately treated with an amount of one of the compounds of Formula I, II, or III (see Table 1). Cells were exposed to each compound (0.1 μg/mL or 1.0 μg/mL) for one hour or 24 hours, rinsed with drug-free media, and incubated for an additional five days. The number of viable cells after five days was measured using an MTT (3-(4,5-dimethylthiazol-2-yl)-2,5-diphenyltetrazolium bromide) assay (see, e.g., Mosmann, J. Immunol. Methods, 65(1-2), 55-63 (1983)).
(§2) The cytotoxicity of each drug was determined and expressed as the percent of cells killed (“% kill”).

[2] = tested on: LS-174T; experiment: MTT cytotoxicity assay (% kill), LS-174T; format: cell-based, human; details: 1 h exposure, MTT after five days
Protocol: as §1, §2

[3] = tested on: WiDr; experiment: MTT cytotoxicity assay (% kill), WiDr; format: cell-based, human; details: 1 h exposure
Protocol: as §1, §2

[4] = tested on: NCI-AR; experiment: MTT cytotoxicity assay (% kill), NCI-AR; format: cell-based, human; details: 1 h exposure
Protocol: as §1, §2

[5] = tested on: MES-Sar; experiment: MTT cytotoxicity assay (% kill), MES-Sar; format: cell-based, human; details: 1 h exposure
Protocol: as §1, §2

[6] = tested on: Colon 38 (murine colon adenocarcinoma); experiment: Disk diffusion assay, zone of inhibition, Colon 38; zone differentials, potency and product; format: cell-based; design: key to C38ΔL1210 / C38ΔCFU: difference of zone of inhibition values, in zone units
Outline: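 Dissociated Colon 38 cells were plated in soft agar over a hard agar layer; 15 µl of compound dilution dried on a 6.5 mm disk was placed on the plate, and incubation ran 7–10 days. Inhibition zone was measured from disk edge to normal colonies, with the disk diameter = 200 units. Potency = dilution giving 500 units; the product multiplies it by the differentials against L1210 or CFU-GM.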

**Q.** For `CCC(O)(CC(=O)OC1C(=O)OC2CC3C(C)=C(O)C(=O)CC3(C)C3C(O)C(O)C4(C(=O)OC)OCC23C14)C(C)C` (mixture of isomers) [(+/−)-15-O-(3′-ethyl-3′-hydroxy-4′-methyl)-bruceolide], which “% Kill, SK-N-AS” value ([1]; 0.1 μg/mL, 1 h exposure) is on record?
**A.** 0%

**Q.** And the “% Kill, SK-N-AS” value ([1]; 0.1 μg/mL, 24 h exposure)?
**A.** 0%

**Q.** And the “% Kill, SK-N-AS” value ([1]; 1.0 μg/mL, 1 h exposure)?
**A.** 0%

**Q.** And the “% Kill, SK-N-AS” value ([1]; 1.0 μg/mL, 24 h exposure)?
**A.** 0%

**Q.** And the “% Kill, LS-174T” value ([2]; 0.1 μg/mL)?
**A.** 0%

**Q.** And the “% Kill, LS-174T” value ([2]; 1.0 μg/mL)?
**A.** 0%

**Q.** What about the “% kill, WiDr” value ([3]; 0.1 μg/mL) of the same molecule?
**A.** 0%

**Q.** What about the “% kill, WiDr” value ([3]; 1.0 μg/mL) of the same molecule?
**A.** 0%

**Q.** And the “% kill, NCI-AR” value ([4]; 0.1 μg/mL)?
**A.** 0%

**Q.** And the “% kill, NCI-AR” value ([4]; 1.0 μg/mL)?
**A.** 0%

**Q.** What about the “% kill, MES Sar” value ([5]; 0.1 μg/mL) of the same molecule?
**A.** 0%

**Q.** What about the “% kill, MES Sar” value ([5]; 1.0 μg/mL) of the same molecule?
**A.** 0%

**Q.** What about the Sum ([6]; C38ΔL1210 plus C38ΔCFU) of the same molecule?
**A.** 1150

**Q.** What about the C38ΔL1210 ([6]; difference between zone of inhibition values, Colon38 vs L1210 leukemia) of the same molecule?
**A.** 600

**Q.** And the C38ΔCFU ([6]; difference between zone of inhibition values, Colon38 vs normal cell CFU-GM)?
**A.** 550

**Q.** What about the Product ([6]; potency multiplied by zone differentials) of the same molecule?
**A.** 3450
